For assay [1], the target named is T1, human DNA polymerase eta (hpol η) (Homo sapiens, UniProt Q9Y253).
T1 sequence (Q9Y253 1-437): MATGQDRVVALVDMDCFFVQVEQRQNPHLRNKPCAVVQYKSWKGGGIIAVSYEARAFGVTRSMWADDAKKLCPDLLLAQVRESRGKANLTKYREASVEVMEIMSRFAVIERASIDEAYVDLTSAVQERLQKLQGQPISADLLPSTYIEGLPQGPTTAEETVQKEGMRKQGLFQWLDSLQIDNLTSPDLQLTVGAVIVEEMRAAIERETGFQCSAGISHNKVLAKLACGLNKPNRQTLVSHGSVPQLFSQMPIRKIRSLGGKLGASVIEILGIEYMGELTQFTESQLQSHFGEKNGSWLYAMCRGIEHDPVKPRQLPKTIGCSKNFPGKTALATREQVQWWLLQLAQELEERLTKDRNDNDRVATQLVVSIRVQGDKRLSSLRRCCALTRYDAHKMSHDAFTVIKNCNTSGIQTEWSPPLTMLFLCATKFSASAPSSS
The assay is described as follows: Fluorescence-based polymerase strand-displacement assay, hpol η. The assay is classed as biochemical. To be noted: IC50 for inhibition of hpol η, 10 nM hpol η, 50 nM DNA, 0.1 mM dTTP; mean ± standard deviation, triplicate.

For assay [2], the target named is T2, human Y-family DNA polymerase kappa (hpol κ) (Homo sapiens, UniProt Q9UBT6).
T2 sequence (Q9UBT6 19-526): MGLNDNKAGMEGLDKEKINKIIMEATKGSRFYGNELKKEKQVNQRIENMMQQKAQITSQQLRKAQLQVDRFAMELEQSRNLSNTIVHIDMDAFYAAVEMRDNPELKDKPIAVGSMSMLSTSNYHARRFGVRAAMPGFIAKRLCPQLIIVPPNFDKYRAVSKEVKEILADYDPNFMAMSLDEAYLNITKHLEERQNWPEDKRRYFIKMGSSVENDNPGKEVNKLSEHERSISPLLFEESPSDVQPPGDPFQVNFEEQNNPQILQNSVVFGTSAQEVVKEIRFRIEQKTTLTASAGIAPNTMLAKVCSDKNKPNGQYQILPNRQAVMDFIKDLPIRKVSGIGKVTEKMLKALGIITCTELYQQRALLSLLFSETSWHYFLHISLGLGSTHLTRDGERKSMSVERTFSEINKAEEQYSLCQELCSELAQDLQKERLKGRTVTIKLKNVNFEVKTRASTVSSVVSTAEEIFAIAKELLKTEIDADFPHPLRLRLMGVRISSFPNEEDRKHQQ
As to the kind of experiment: Fluorescence-based polymerase assay, hpol κ. The assay is classed as biochemical.

For another assay, the target named is T3, Dpo1 (Saccharolobus solfataricus, UniProt P26811).
T3 sequence (P26811 1-882): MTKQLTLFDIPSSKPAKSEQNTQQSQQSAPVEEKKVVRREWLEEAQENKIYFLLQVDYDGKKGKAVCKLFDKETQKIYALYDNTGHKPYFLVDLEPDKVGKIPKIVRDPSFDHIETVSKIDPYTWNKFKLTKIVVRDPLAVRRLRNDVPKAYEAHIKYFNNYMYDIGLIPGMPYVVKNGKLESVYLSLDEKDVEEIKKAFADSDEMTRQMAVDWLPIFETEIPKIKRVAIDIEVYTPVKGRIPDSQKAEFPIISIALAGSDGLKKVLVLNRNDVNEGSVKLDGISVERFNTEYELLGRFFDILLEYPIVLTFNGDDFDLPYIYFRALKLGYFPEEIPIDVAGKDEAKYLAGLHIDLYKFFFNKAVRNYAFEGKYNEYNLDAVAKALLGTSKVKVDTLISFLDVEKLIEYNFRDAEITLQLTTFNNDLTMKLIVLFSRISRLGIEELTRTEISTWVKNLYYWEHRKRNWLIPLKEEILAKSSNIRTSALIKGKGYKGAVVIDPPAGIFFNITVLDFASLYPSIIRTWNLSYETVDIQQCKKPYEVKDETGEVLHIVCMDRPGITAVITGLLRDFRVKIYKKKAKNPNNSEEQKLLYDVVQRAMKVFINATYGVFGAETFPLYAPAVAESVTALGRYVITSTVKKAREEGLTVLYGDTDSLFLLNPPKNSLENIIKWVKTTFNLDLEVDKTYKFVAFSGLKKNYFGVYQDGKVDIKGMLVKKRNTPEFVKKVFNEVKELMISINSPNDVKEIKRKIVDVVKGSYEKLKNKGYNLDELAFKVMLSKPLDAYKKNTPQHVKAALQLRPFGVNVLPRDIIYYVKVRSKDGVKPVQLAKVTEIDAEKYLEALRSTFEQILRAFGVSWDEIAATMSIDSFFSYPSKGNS
The assay is described as follows: Fluorescence-based polymerase assay, Dpo1. The assay is classed as biochemical, S. solfataricus.

The record followed here is article PMC3746001 (ACS chemical biology, 2013).

As usually defined, the IC50 is the midpoint of a concentration-inhibition curve. A lower IC50 goes with higher potency.

On to `O=C1NC(=S)NC(=O)C1=Cc1cn(C(=O)c2ccccc2Br)c2ccc(Cl)cc12` [ITBA-12, 5-((1-(2-bromobenzoyl)-5-chloro-1H-indol-3-yl)methylene)-2-thioxodihydropyrimidine-4,6(1H,5H)-dione], for which the results for the IC50 (in assay [1]; in assay [2]; against Dpo1) were 29.8 ± 2.7 µM, 59 ± 11 µM and roughly 80 µM, respectively. Also, in assay [2] (hpol κ versus hpol η), the “IC50 for hpol κ relative to hpol η” value is on record as “twice as high”.
